Laboratory results published in the supplement of paper PMC10307832.

Key:
Assay in all cases: relative viability (nuclei count vs DMSO), 5 days (fraction); higher = more cells survive
[1] = compound: CC1=C(CC(=O)O)c2cc(F)ccc2/C1=C\c1ccc([S+](C)[O-])cc1 [Sulindac] + CS(=O)(=O)CCNCc1ccc(-c2ccc3ncnc(Nc4ccc(OCc5cccc(F)c5)c(Cl)c4)c3c2)o1 [Lapatinib] (partner 2 µM)
Summary of the method: (§1)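 Each reported value is a median over duplicate plates. It expresses relative viability: treated-well nuclei count divided by vehicle-well nuclei count. Lung cancer cell lines in 1536-well plates were dosed by pin tool a day after seeding, alone with one drug or with a fixed anchor-drug dose plus five library-drug doses (not always all listed) in √10 steps, and nuclei were counted after 5 days.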

[2] = compound: O=c1[nH]cc(F)c(=O)[nH]1 [5-Fluorouracil] + CC(=O)Nc1cccc(-n2c(=O)n(C3CC3)c(=O)c3c(Nc4ccc(I)cc4F)n(C)c(=O)c(C)c32)c1 [Trametinib] (partner 0.02 µM)
Summary of the method: as §1

[3] = compound: O=c1[nH]cc(F)c(=O)[nH]1 [5-Fluorouracil] + CC(=O)c1c(C)c2cnc(Nc3ccc(N4CCNCC4)cn3)nc2n(C2CCCC2)c1=O [Palbociclib] (partner 0.5 µM)
Summary of the method: as §1

[4] = compound: O=c1[nH]cc(F)c(=O)[nH]1 [5-Fluorouracil] + C[C@@H](Oc1cc(-c2cnn(C3CCNCC3)c2)cnc1N)c1c(Cl)ccc(F)c1Cl [Crizotinib] (partner 1 µM)
Summary of the method: as §1

Cell Line | relative viability ([1]; first compound 0.08 µM) | relative viability ([1]; first compound 0.253 µM) | relative viability ([1]; first compound 0.8 µM) | relative viability ([1]; first compound 2.53 µM) | relative viability ([1]; first compound 8 µM) | relative viability ([2]; first compound 0.02 µM) | relative viability ([2]; first compound 0.2 µM) | relative viability ([2]; first compound 0.6325 µM) | relative viability ([2]; first compound 2 µM) | relative viability ([3]; first compound 0.02 µM) | relative viability ([3]; first compound 0.2 µM) | relative viability ([3]; first compound 0.6325 µM) | relative viability ([3]; first compound 2 µM) | relative viability ([4]; first compound 0.02 µM) | relative viability ([4]; first compound 0.2 µM) | relative viability ([4]; first compound 0.6325 µM) | relative viability ([4]; first compound 2 µM)
NCI-H727 | 0.968 | 0.799 | 0.767 | 0.699 | 1.19 | 0.361 | 0.384 | 0.363 | 0.389 | 0.839 | 0.685 | 0.745 | 0.607 | 1.07 | 1.05 | 0.891 | 0.703
NCI-H1734 | 1.06 | 1.08 | 0.893 | 0.986 | 1.44 | 0.709 | 0.682 | 0.584 | 0.415 | 0.349 | 0.346 | 0.271 | 0.264 | 0.709 | 0.742 | 0.533 | 0.37
EKVX | 0.193 | 0.186 | 0.21 | 0.18 | 0.111 | 0.326 |  | 0.187 | 0.148 |  | 0.276 |  | 0.175 | 0.842 |  | 0.181 | 
LCLC-97TM1 | 0.962 | 1.45 | 0.83 |  | 1.37 | 0.181 | 0.203 | 0.209 | 0.188 | 0.221 | 0.228 | 0.215 | 0.157 | 0.349 | 0.552 | 0.244 | 0.171
COR-L23 | 1.58 | 1.16 |  | 0.976 | 1.12 | 0.585 | 0.631 | 0.359 | 0.275 | 0.288 | 0.315 | 0.206 | 0.144 | 0.789 | 0.556 | 0.478 | 0.148
NCI-H1355 | 1.16 | 1.05 | 0.881 | 0.956 | 1.13 | 0.443 | 0.387 | 0.265 | 0.242 | 0.41 | 0.364 | 0.241 | 0.207 | 1.04 | 0.672 | 0.373 | 0.266
EPLC-272H | 0.987 |  | 0.602 | 0.78 | 1.24 | 0.263 | 0.262 | 0.242 | 0.198 | 0.319 | 0.36 | 0.3 | 0.343 | 0.841 | 0.614 | 0.346 | 0.228
NCI-H1651 | 1.07 | 0.836 | 0.736 | 0.829 | 1.09 | 0.879 | 0.684 | 0.325 | 0.267 | 0.512 | 0.467 | 0.283 | 0.272 | 0.825 | 0.838 | 0.452 | 0.38
SW 1573 | 1.11 | 1.3 | 1.02 | 1.1 | 1.28 | 0.576 | 0.631 | 0.497 | 0.306 | 0.398 | 0.353 | 0.29 | 0.236 | 0.824 | 0.899 | 0.778 | 0.463
HCC-44 | 1.14 | 1.05 | 0.919 | 1.05 | 1.15 | 1.09 | 1 | 0.692 | 0.599 | 0.971 | 0.929 | 0.823 | 0.619 | 0.848 | 0.768 | 0.578 | 0.324
